In patent publication US7288676B2, “Arylphenyl-substituted cyclic ketoenols” (Bayer CropScience AG, priority 1998, dated 2007):

Assays:
Assay type in all cases: in vivo
[1] = tested on: peach aphids (Myzus persicae); assay: Myzus test; settings: concentration of active compound 0.1 %, infested cabbage leaves (Brassica oleracea) dipped
Procedure: Myzus Test [table] To produce a suitable preparation of active compound, 1 part by weight of active compound is mixed with the stated amounts of solvent and emulsifier, and the concentrate is diluted with water to the desired concentration. Cabbage leaves (Brassica oleracea) which are heavily infested by peach aphids (Myzus persicae) are treated by being dipped into the preparation of active compound of the desired concentration. After the desired period of time, the kill in % is determined. 100% means that all aphids have been killed; 0% means that none of the aphids have been killed.

[2] = tested on: larvae of the green rice leaf-hopper (Nephotettix cincticeps); assay: Nephotettix test; settings: active compound 0.1 %, rice seedlings (Oryza sativa) dipped
Procedure: Nephotettix Test [table] To produce a suitable preparation of active compound, 1 part by weight of active compound is mixed with the stated amounts of solvent and emulsifier, and the concentrate is diluted with water to the desired concentration. Rice seedlings (Oryza sativa) are treated by being dipped into the preparation of active compound of the desired concentration and are populated with larvae of the green rice leaf-hopper (Nephotettix cincticeps) while the leaves are still moist. After the desired period of time, the kill in % is determined. 100% means that all leaf-hoppers have been killed; 0% means that none of the leaf-hoppers have been killed.

[3] = tested on: larvae of the mustard beetle (Phaedon cochleariae); assay: Phaedon larvae test; settings: concentration of active compound 0.1 %, cabbage leaves (Brassica oleracea) dipped
Procedure: Phaedon larvae Test [table] To produce a suitable preparation of active compound, 1 part by weight of active compound is mixed with the stated amounts of solvent and emulsifier, and the concentrate is diluted with water to the desired concentration. Cabbage leaves (Brassica oleracea) are treated by being dipped into the preparation of active compound of the desired concentration and are populated with larvae of the mustard beetle (Phaedon cochleariae) while the leaves are still moist. After the desired period of time, the kill in % is determined. 100% means that all […] have been killed.

## CCOC1CCC2(CC1)NC(=O)C(c1c(C)cc(-c3ccc(Cl)cc3)cc1C)=C2O (centres unmarked) [drawing 171]
[1]
  Kill in % after 6 days: 95%

## COC1CCC2(CC1)NC(=O)C(c1c(C)cc(-c3ccc(Cl)cc3)cc1Cl)=C2O (centres unmarked) [drawing 172]
[2]
  Kill in % after 6 days: 100%

## CCOC1CCC2(CC1)NC(=O)C(c1c(C)cc(-c3ccc(Cl)cc3)cc1C)=C2O (centres unmarked) [drawing 173]
[2]
  Kill in % after 6 days: 100%

## COC1CCC2(CC1)NC(=O)C(c1c(C)cc(-c3ccc(Cl)cc3)cc1Cl)=C2O (centres unmarked) [drawing 174]
[3]
  Kill in % after 7 days: 100%

## CCOC1CCC2(CC1)NC(=O)C(c1c(C)cc(-c3ccc(Cl)cc3)cc1C)=C2O (centres unmarked) [drawing 175]
[3]
  Kill in % after 7 days: 100%
